The values that follow are results of earlier work, collected in patent publication US11819781B2, “Device for solid phase extraction and method for use thereof” (Waters Technologies Corporation, priority 2014, dated 2023).

A word on the pKa: it is the pH at which an ionisable group is half protonated. Broadly, the Log P is a log measure of how a compound divides between an organic and an aqueous phase.

The conditions of this data set: analyte characteristics; for Log P: octanol:water.

For the compound `CN(C)CCC=C1c2ccccc2CCc2ccccc21` [Amitriptyline], the pKa is recorded as 9.7 and the lipophilicity (Log P) is 4.8.

With `C[C@H]1C[C@H]2[C@@H]3CCC4=CC(=O)C=C[C@]4(C)[C@@]3(F)[C@@H](O)C[C@]2(C)[C@@]1(O)C(=O)CO` [Betamethasone], the “Log P” value is reported as 1.1. `CNCCCC1c2ccccc2C=Cc2ccccc21` [Protriptyline]: the lipophilicity (Log P) is given as 4.4.
